Structures are written as SMILES.

What is called pKa is the negative logarithm of the acid dissociation constant. Low readings indicate a group that gives up its proton readily, high ones a group that holds its proton tightly.

Consider `CC(C)(C)NCC(O)c1cc(O)cc(O)c1` (centres undefined), for which the pKa came out at 8.7.

As for `O=c1n(CCCN2CCN(c3cccc(Cl)c3)CC2)nc2ccccn12`, the pKa came to 6.79.

Consider `COc1ccc2c3c1O[C@H]1[C@@H](O)C=C[C@H]4[C@@H](C2)N(C)CC[C@@]341`, for which the pKa came out at 8.2.

`CCN(C)C(=O)Oc1cccc([C@H](C)N(C)C)c1` displayed a pKa of 8.99.

`CC(C)(C)NCC(O)COc1cccc2c1C[C@H](O)[C@H](O)C2` (some centres undefined) displayed a pKa of 9.67.

As to `Cc1ccc(O)c([C@@H](CCN(C(C)C)C(C)C)c2ccccc2)c1`, the pKa turned out to be 9.8.

Regarding `CC(C)(C)NCC(O)COc1nsnc1N1CCOCC1` (centres undefined), the pKa was found to be 8.8.

On to `CN1CCN2c3ncccc3Cc3ccccc3C2C1` (centres undefined), for which the pKa stood at 7.3.

The compound `CNCCC=C1c2ccccc2CCc2ccccc21` gave a pKa of 10.1.

`CCOC(=O)C1(c2ccccc2)CCN(C)CC1`: the pKa stood at 8.7.

Regarding `CC(CN1c2ccccc2Sc2ccccc21)N(C)C` (centres undefined), the pKa turned out to be 9.1.

Turning to `COc1ccc([C@@H]2Sc3ccccc3N(CCN(C)C)C(=O)[C@@H]2OC(C)=O)cc1`, the pKa stood at 8.06.

On to `CN(C)CCCN1c2ccccc2Sc2ccccc21`, for which the pKa came out at 9.28.

With `CNCC[C@@H](Oc1ccccc1C)c1ccccc1`, the pKa turned out to be 10.1.

The compound `Cc1ccccc1OCC(O)CNCCOc1ccc(C(N)=O)cc1` (centres undefined) yielded a pKa of 7.9.

`O=C(NCC1CCCCN1)c1cc(OCC(F)(F)F)ccc1OCC(F)(F)F` (centres undefined) showed a pKa of 9.3.

As to `CC(C)NCC(O)c1ccc(NS(C)(=O)=O)cc1` (centres undefined), the pKa was 9.76.

`CNCCCC12CCC(c3ccccc31)c1ccccc12` had a pKa of 10.5.

Turning to `CN(C)CCC=C1c2ccccc2CCc2ccccc21`, the pKa amounted to 9.4.

For the compound `CCc1nn(CCCN2CCN(c3cccc(Cl)c3)CC2)c(=O)n1CCOc1ccccc1`, the pKa was found to be 6.5.

On to `CC(CN(C)C)CN1c2ccccc2CCc2ccccc21` (centres undefined), for which the pKa worked out at 9.24.

As for `CC(C)NCC(O)COc1ccc(COCCOC(C)C)cc1` (centres undefined), the pKa stood at 9.57.

`CN(C)CCCN1c2ccccc2CCc2ccc(Cl)cc21` registered a pKa of 9.38.

On to `OC(CNCC(O)C1CCc2cc(F)ccc2O1)C1CCc2cc(F)ccc2O1` (centres undefined), for which the pKa came to 8.22.

The compound `CC(CCc1ccccc1)NCC(O)c1ccc(O)c(C(N)=O)c1` (centres undefined) had a pKa of 7.4.

In turn, `CC(C)NCC(O)COc1ccc(CCOCC2CC2)cc1` (centres undefined) returned a pKa of 9.21.

Consider `CN1CCCC(n2nc(Cc3ccc(Cl)cc3)c3ccccc3c2=O)CC1` (centres undefined), for which the pKa worked out at 9.54.

`CNS(=O)(=O)Cc1ccc2[nH]cc(CCN(C)C)c2c1` displayed a pKa of 9.5.

In turn, `COc1ccc2c(c1)N(C[C@H](C)CN(C)C)c1ccccc1S2` registered a pKa of 9.19.
